Experimental data: ChEMBL document CHEMBL4308841, “Synthesis, in vitro antiproliferative activity, and kinase inhibitory effects of pyrazole-containing diarylureas and diarylamides” (Eur J Med Chem, 2018)

What was measured:
NCI-H522 [1] = test: Growth inhibition of human NCI-H522 cells assessed as cell growth at 10 uM incubated for 48 hrs by sulforhodamine B assay relative to control; assay type: functional; conditions: NCI-H522, 48 h, read-out: Activity
NCI-H522 [2] = test: Growth inhibition of human NCI-H522 cells incubated for 48 hrs by sulforhodamine B assay; assay type: functional, cell-based; conditions: NCI-H522, 48 h
HT-29 [3] = test: Growth inhibition of human HT-29 cells incubated for 48 hrs by sulforhodamine B assay; assay type: functional, cell-based; conditions: HT-29, 48 h
M14 = test: Growth inhibition of human M14 cells incubated for 48 hrs by sulforhodamine B assay; assay type: functional, cell-based; conditions: M14, 48 h
SK-MEL-2 = test: Growth inhibition of human SK-MEL-2 cells incubated for 48 hrs by sulforhodamine B assay; assay type: functional, cell-based; conditions: SK-MEL-2, 48 h
OVCAR-3 = test: Growth inhibition of human OVCAR3 cells incubated for 48 hrs by sulforhodamine B assay; assay type: functional, cell-based; conditions: OVCAR-3, 48 h
A498 = test: Growth inhibition of human A498 cells incubated for 48 hrs by sulforhodamine B assay; assay type: functional, cell-based; conditions: A498, 48 h
HL-60(TB) [4] = test: Growth inhibition of human HL-60(TB) cells assessed as cell growth at 0.01 uM incubated for 48 hrs by sulforhodamine B assay relative to control; assay type: functional; conditions: HL-60, 48 h, read-out: Activity
HOP-62 [5] = test: Growth inhibition of human HOP62 cells assessed as cell growth at 0.01 uM incubated for 48 hrs by sulforhodamine B assay relative to control; assay type: functional; conditions: HOP-62, 48 h, read-out: Activity
MDA-MB-435 [6] = test: Growth inhibition of human MDA-MB-435 cells assessed as cell growth at 0.01 uM incubated for 48 hrs by sulforhodamine B assay relative to control; assay type: functional; conditions: MDA-MB-435, 48 h, read-out: Activity
OVCAR-8 = test: Growth inhibition of human OVCAR8 cells assessed as cell growth at 0.01 uM incubated for 48 hrs by sulforhodamine B assay relative to control; assay type: functional; conditions: OVCAR-8, 48 h, read-out: Activity
K562 [7] = test: Growth inhibition of human K562 cells assessed as cell growth at 0.1 uM incubated for 48 hrs by sulforhodamine B assay relative to control; assay type: functional; conditions: K562, 48 h, read-out: Activity
MOLT-4 [8] = test: Growth inhibition of human MOLT4 cells assessed as cell growth at 0.1 uM incubated for 48 hrs by sulforhodamine B assay relative to control; assay type: functional; conditions: MOLT-4, 48 h, read-out: Activity
SR = test: Growth inhibition of human SR cells assessed as cell growth at 0.1 uM incubated for 48 hrs by sulforhodamine B assay relative to control; assay type: functional; conditions: read-out: Activity
HCC 2998 [9] = test: Growth inhibition of human HCC2998 cells assessed as cell growth at 0.1 uM incubated for 48 hrs by sulforhodamine B assay relative to control; assay type: functional; conditions: HCC 2998, 48 h, read-out: Activity
HCT-15 = test: Growth inhibition of human HCT15 cells assessed as cell growth at 0.1 uM incubated for 48 hrs by sulforhodamine B assay relative to control; assay type: functional; conditions: HCT-15, 48 h, read-out: Activity
SF-295 = test: Growth inhibition of human SF295 cells assessed as cell growth at 0.1 uM incubated for 48 hrs by sulforhodamine B assay relative to control; assay type: functional; conditions: SF-295, 48 h, read-out: Activity
MDA-MB-468 [10] = test: Growth inhibition of human MDA-MB-468 cells assessed as cell growth at 0.1 uM incubated for 48 hrs by sulforhodamine B assay relative to control; assay type: functional; conditions: MDA-MB-468, 48 h, read-out: Activity
K562 [11] = test: Growth inhibition of human K562 cells assessed as cell growth at 1 uM incubated for 48 hrs by sulforhodamine B assay relative to control; assay type: functional; conditions: K562, 48 h, read-out: Activity
HOP-62 [12] = test: Growth inhibition of human HOP62 cells assessed as cell growth at 1 uM incubated for 48 hrs by sulforhodamine B assay relative to control; assay type: functional; conditions: HOP-62, 48 h, read-out: Activity
KM12 = test: Growth inhibition of human KM12 cells assessed as cell growth at 1 uM incubated for 48 hrs by sulforhodamine B assay relative to control; assay type: functional; conditions: KM12, 48 h, read-out: Activity
UO-31 = test: Growth inhibition of human UO31 cells assessed as cell growth at 1 uM incubated for 48 hrs by sulforhodamine B assay relative to control; assay type: functional; conditions: UO-31, 48 h, read-out: Activity
DU-145 = test: Growth inhibition of human DU145 cells assessed as cell growth at 1 uM incubated for 48 hrs by sulforhodamine B assay relative to control; assay type: functional; conditions: DU-145, 48 h, read-out: Activity
HL-60(TB) [13] = test: Growth inhibition of human HL-60(TB) cells assessed as cell growth at 100 uM incubated for 48 hrs by sulforhodamine B assay relative to control; assay type: functional; conditions: HL-60, 48 h, read-out: Activity
K562 [14] = test: Growth inhibition of human K562 cells assessed as cell growth at 100 uM incubated for 48 hrs by sulforhodamine B assay relative to control; assay type: functional; conditions: K562, 48 h, read-out: Activity
MOLT-4 [15] = test: Growth inhibition of human MOLT4 cells assessed as cell growth at 100 uM incubated for 48 hrs by sulforhodamine B assay relative to control; assay type: functional; conditions: MOLT-4, 48 h, read-out: Activity
HCC 2998 [16] = test: Growth inhibition of human HCC2998 cells assessed as cell growth at 100 uM incubated for 48 hrs by sulforhodamine B assay relative to control; assay type: functional; conditions: HCC 2998, 48 h, read-out: Activity
HT-29 [17] = test: Growth inhibition of human HT-29 cells assessed as cell growth at 100 uM incubated for 48 hrs by sulforhodamine B assay relative to control; assay type: functional; conditions: HT-29, 48 h, read-out: Activity
MDA-MB-435 [18] = test: Growth inhibition of human MDA-MB-435 cells assessed as cell growth at 100 uM incubated for 48 hrs by sulforhodamine B assay relative to control; assay type: functional; conditions: MDA-MB-435, 48 h, read-out: Activity
MDA-MB-468 [19] = test: Growth inhibition of human MDA-MB-468 cells assessed as cell growth at 100 uM incubated for 48 hrs by sulforhodamine B assay relative to control; assay type: functional; conditions: MDA-MB-468, 48 h, read-out: Activity
[20] = read-out: LC50 (the source's name)
[21] = read-out: pLC50 (the source's name) (converted)

**Q.** Which results are given for `COc1cc(Cl)cc(-c2nn(-c3cccc(NC(=O)c4cccc(C(F)(F)F)c4)c3)cc2-c2ccncc2)c1`?
**A.** growth at 10 µM (NCI-H522 [1]): 32.2%; GI50 (NCI-H522 [2]; read-out: GI50): 1.9 µM; CC50 (NCI-H522 [2]; [20]): > 100 µM; TGI (NCI-H522 [2]; read-out: TGI): > 100 µM; GI50 (NCI-H522 [2]; read-out: pGI50 (converted)): 2 µM; CC50 (NCI-H522 [2]; [21]): > 100 µM; TGI (NCI-H522 [2]; read-out: pTGI (converted)): > 100 µM; GI50 (HT-29 [3]; read-out: GI50): 3.37 µM; CC50 (HT-29 [3]; [20]): > 100 µM; TGI (HT-29 [3]; read-out: TGI): > 100 µM; GI50 (HT-29 [3]; read-out: pGI50 (converted)): 3.39 µM; CC50 (HT-29 [3]; [21]): > 100 µM; TGI (HT-29 [3]; read-out: pTGI (converted)): > 100 µM; GI50 (M14; read-out: GI50): 0.09 µM; CC50 (M14; [20]): > 100 µM; TGI (M14; read-out: TGI): > 100 µM; GI50 (M14; read-out: pGI50 (converted)): 6.03 µM; CC50 (M14; [21]): > 100 µM; TGI (M14; read-out: pTGI (converted)): > 100 µM; GI50 (SK-MEL-2; read-out: GI50): 0.78 µM; CC50 (SK-MEL-2; [20]): > 100 µM; TGI (SK-MEL-2; read-out: TGI): > 100 µM; GI50 (SK-MEL-2; read-out: pGI50 (converted)): 6.76 µM; CC50 (SK-MEL-2; [21]): > 100 µM; TGI (SK-MEL-2; read-out: pTGI (converted)): > 100 µM; IC50 (OVCAR-3): 7.69 µM; GI50 (OVCAR-3; read-out: GI50): 7.59 µM; CC50 (OVCAR-3; [20]): > 100 µM; TGI (OVCAR-3; read-out: TGI): > 100 µM; GI50 (OVCAR-3; read-out: pGI50 (converted)): 7.76 µM; CC50 (OVCAR-3; [21]): > 100 µM; TGI (OVCAR-3; read-out: pTGI (converted)): > 100 µM; CC50 (A498; [20]): > 100 µM; TGI (A498; read-out: TGI): > 100 µM; CC50 (A498; [21]): > 100 µM; TGI (A498; read-out: pTGI (converted)): > 100 µM; growth at 0.01 µM (HL-60(TB) [4]): 59%; growth at 0.01 µM (HOP-62 [5]): 104%; growth at 0.01 µM (MDA-MB-435 [6]): 98%; growth at 0.01 µM (OVCAR-8): 103%; growth at 0.1 µM (K562 [7]): 112%; growth at 0.1 µM (MOLT-4 [8]): 95%; growth at 0.1 µM (SR): 54%; growth at 0.1 µM (HCC 2998 [9]): 104%; growth at 0.1 µM (HCT-15): 91%; growth at 0.1 µM (SF-295): 90%; growth at 0.1 µM (MDA-MB-468 [10]): 85%; growth at 1 µM (K562 [11]): 90%; growth at 1 µM (HOP-62 [12]): 101%; growth at 1 µM (KM12): 56%; growth at 1 µM (UO-31): 54%; growth at 1 µM (DU-145): 100%; growth at 100 µM (HL-60(TB) [13]): 49%; growth at 100 µM (K562 [14]): 32%; growth at 100 µM (MOLT-4 [15]): 27%; growth at 100 µM (HCC 2998 [16]): 15%; growth at 100 µM (HT-29 [17]): 34%; growth at 100 µM (MDA-MB-435 [18]): 52%; growth at 100 µM (MDA-MB-468 [19]): 28%
